{"source": "patent US20060100170A1", "about": "“Isopycnic pharmaceutical formulation” (Agouron Pharmaceuticals, Inc., priority 2004, published 2006)", "key": {"[1]": {"test": "Drug depot below Tenon's capsule vs below the conjunctiva, retinal drug concentration", "format": "in vivo, New Zealand White rabbits", "conditions": "depot on outer surface of the sclera below Tenon's capsule; measured the day after the injection; rabbit eyes", "from_the_text": "The sclera and Tenon's capsule define the exterior surface of the globe of the eye. For treatment of ARMD, CNV, retinopathies, retinitis, uveitis, cystoid macular edema (CME), glaucoma, and other diseases or conditions of the posterior segment of the eye, it is preferable to dispose a depot of a specific quantity of an ophthalmically acceptable pharmaceutically active agent directly on the outer surface of the sclera and below Tenon's capsule. In addition, in cases of ARMD and CME it is most preferable to dispose the depot directly on the outer surface of the sclera, below Tenon's capsule, and generally above the macula. In a study using New Zealand White rabbits, a drug depot of 4,9(11)-Pregnadien-17α,21-diol-3,20-dione-21-acetate, an angiostatic steroid available from Steraloids, Inc. of Wilton, N.H., was disposed directly on the outer surface of the sclera, below the Tenon's capsule, and slightly posterior of the equator of the rabbit eyes. […] Given the fact that the Tenon's capsule of a New Zealand White rabbit is very thin, these beneficial results are highly unexpected. It is important to note that Tenon's capsule of the human eye is also very thin. […]"}, "[2]": {"test": "Sucrose effect on content uniformity in the ready to use (RTU) composition", "format": "physicochemical", "conditions": "ready to use composition made with sucrose from different vendors, FIG. 2", "from_the_text": "The concentrated sterile aqueous composition preferably comprises sucrose. The concentrated sterile aqueous composition comprises sucrose in an amount sufficient to form a stable aqueous composition of pharmaceutical agent represented by formula 1, typically about 40 to 80 weight percent sucrose based on the total weight of the composition. The concentrated sterile aqueous composition comprises sucrose in an amount ranging from a lower limit of 40, 45, 50, 55 or 60 or 65 weight percent, based on the total weight of the composition, to an upper limit of 70 or 75 or 80 weight percent, based on the total weight of the composition, with ranges from any upper limit to any lower limit being contemplated.\nFIG. 2 illustrates the sucrose effect on content uniformity in the ready to use (RTU) composition.\nThe vertical bars represent 95% Confidence Interval."}, "[3]": {"test": "Particle size distribution following jet-milling", "format": "physicochemical", "from_the_text": "The pharmaceutical agent is stable following gamma irradiation at 25 kGy and is stable following e-beam irradiation at 25 kGY. The particle size distribution, calculated by means well known in the art, following jet-milling (in microns) is as follows:\nd10=0.5; d50=1.5; and d90=3.5; wherein for example, d50 represents 50% of the pharmaceutical agent is 1.5 microns or less in size."}, "[4]": {"test": "Stability of the drug substance to light, room temperature and irradiation", "format": "physicochemical", "from_the_text": "The pharmaceutical agent is stable following gamma irradiation at 25 kGy and is stable following e-beam irradiation at 25 kGY. The particle size distribution, calculated by means well known in the art, following jet-milling (in microns) is as follows: […]"}}}
{"smiles": "CC(=O)OCC(=O)[C@@]1(O)CC[C@H]2[C@@H]3CCC4=CC(=O)CC[C@]4(C)C3=CC[C@@]21C", "note": "[4,9(11)-Pregnadien-17α,21-diol-3,20-dione-21-acetate]", "values": [{"measurement": "concentration of the angiostatic steroid, averaged over the entire retina, relative to a depot below the conjunctiva but above the Tenon's capsule", "setting": "[1]", "value": "about ten times greater"}]}
{"smiles": "OC[C@H]1O[C@@](CO)(O[C@H]2O[C@H](CO)[C@@H](O)[C@H](O)[C@H]2O)[C@@H](O)[C@@H]1O", "note": "[Sigma, S3929 Lot 101K0105, sucrose]", "values": [{"measurement": "content uniformity", "setting": "[2]", "value": "best content uniformity"}]}
{"smiles": "Cc1cc(C(=O)Nc2cc(Nc3ccc4c(/C=C/c5ccccn5)n[nH]c4c3)ccc2F)n(C)n1", "note": "[pharmaceutical agent 1]", "values": [{"measurement": "particle size d10", "setting": "[3]", "value": 0.5, "unit": "microns"}, {"measurement": "particle size d50", "setting": "[3]", "value": 1.5, "unit": "microns"}, {"measurement": "particle size d90", "setting": "[3]", "value": 3.5, "unit": "microns"}, {"measurement": "light sensitivity", "setting": "[4]; drug substance", "value": "light insensitive"}, {"measurement": "stability following e-beam irradiation", "setting": "[4]; e-beam irradiation at 25 kGY", "value": "stable"}, {"measurement": "stability following gamma irradiation", "setting": "[4]; gamma irradiation at 25 kGy", "value": "stable"}, {"measurement": "stability at room temperature", "setting": "[4]; room temperature", "value": "stable"}]}
